Experiment [1] has as its target Beta-1 adrenergic receptor (Homo sapiens, UniProt P08588). It counts as functional, cell-based.
The target of experiment [2] is Beta-2 adrenergic receptor (Homo sapiens, UniProt P07550). It counts as functional, cell-based.
Further: assay procedure not described here.

Chain of Beta-2 adrenergic receptor (P07550 whole entry): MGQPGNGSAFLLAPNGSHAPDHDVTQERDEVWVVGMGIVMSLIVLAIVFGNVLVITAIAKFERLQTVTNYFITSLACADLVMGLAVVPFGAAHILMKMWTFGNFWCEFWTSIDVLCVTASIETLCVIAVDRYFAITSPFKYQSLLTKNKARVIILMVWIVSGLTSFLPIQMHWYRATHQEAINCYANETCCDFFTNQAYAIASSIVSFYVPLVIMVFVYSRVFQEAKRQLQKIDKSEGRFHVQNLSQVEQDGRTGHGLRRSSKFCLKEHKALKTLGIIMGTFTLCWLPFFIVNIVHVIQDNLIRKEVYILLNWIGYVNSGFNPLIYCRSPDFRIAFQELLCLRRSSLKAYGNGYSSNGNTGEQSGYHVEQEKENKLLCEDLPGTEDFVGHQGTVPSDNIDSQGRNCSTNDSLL
Chain of Beta-1 adrenergic receptor (P08588 whole entry): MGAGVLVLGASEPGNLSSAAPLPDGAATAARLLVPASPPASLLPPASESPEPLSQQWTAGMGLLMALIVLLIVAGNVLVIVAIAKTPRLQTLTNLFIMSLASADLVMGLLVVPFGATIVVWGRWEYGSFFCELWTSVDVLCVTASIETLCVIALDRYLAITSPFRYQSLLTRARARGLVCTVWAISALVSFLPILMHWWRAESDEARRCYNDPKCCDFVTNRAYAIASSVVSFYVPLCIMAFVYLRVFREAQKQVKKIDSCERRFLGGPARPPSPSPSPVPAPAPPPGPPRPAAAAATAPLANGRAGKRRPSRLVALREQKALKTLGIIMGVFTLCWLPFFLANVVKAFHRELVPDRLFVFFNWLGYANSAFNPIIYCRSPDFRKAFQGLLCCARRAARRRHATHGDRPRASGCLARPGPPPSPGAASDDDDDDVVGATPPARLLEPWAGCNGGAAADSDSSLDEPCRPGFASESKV

The term AC50 denotes the midpoint of the concentration-response curve, whichever way the signal moves. Low values mean activity at low concentration, high ones activity only at high concentration. For the compound `COc1cc2c(N)nc(N3CCN(C(=O)OCC(C)(C)O)CC3)nc2c(OC)c1OC` [TRIMAZOSIN], the AC50 in experiment [1] and in experiment [2] was greater than 30 µM in each case.

On to `CCOC(=O)[N-]c1cn(N2CCOCC2)n[o+]1` [MOLSIDOMINE], for which the AC50 in experiment [1] and in experiment [2] was greater than 30 µM in each case.

The record behind these values is ChEMBL document CHEMBL5291721, “A preclinical secondary pharmacology resource illuminates target-adverse drug reaction associations of marketed drugs” (Nat Commun, 2023).
